# Laboratory results as given in patent US20080132522A1, “2-Substituted Pyrimidines, Method for Their Production and Their Use for Controlling Pathogenic Fungi” (BASF Aktiengesellschaft, priority 2004, published 2008).
# Key:
# Alternaria solani = assay: Activity against early blight of tomato caused by Alternaria solani; type: in vivo; details: 250 ppm; tomato "Goldene Königin"; after 5 days; untreated 90% infected
# Procedure: (§1) The active compounds were prepared separately as a stock solution with 25 mg of active compound which was made up to 10 ml with a mixture of acetone and/or DMSO and the emulsifier Uniperol® EL (wetting agent having emulsifying and dispersing action based on ethoxylated alkylphenols) in a volume ratio solvent/emulsifier of 99 to 1. The solution was then made up to 100 ml with water. This stock solution was diluted to the active compound concentration stated below using the solvent/emulsifier/water mixture described.
# Activity Against Early Blight of Tomato Caused by Alternaria solani
# Leaves of potted plants of the cultivar “Goldene Königin” were sprayed to runoff point with an aqueous suspension having the concentration of active compounds stated below. The next day, the leaves were inoculated with an aqueous spore suspension of Alternaria solani in 2% biomalt solution having a density of 0.17×10^6 spores/ml. The plants were then placed in a water-vapor-saturated chamber at temperatures of between 20 and 22° C. After 5 days, the disease on the leaves of the untreated, but infected control plants had developed to such an extent that the infection could be determined visually in %.
# Botrytis cinerea = assay: Activity against gray mold on bell pepper leaves caused by Botrytis cinerea, protective application; type: in vivo; details: 250 ppm; bell pepper "Neusiedler Ideal Elite"; after 5 days; untreated 90% infected
# Procedure: as §1
# Activity Against Gray Mold on Bell Pepper Leaves Caused by Botrytis cinerea, Protective Application
# Bell pepper seedlings of the cultivar “Neusiedler Ideal Elite” were, after 2-3 leaves were well-developed, sprayed to runoff point with an aqueous suspension having the concentration of active compound stated below. The next day, the treated plants were inoculated with a spore suspension of Botrytis cinerea which contained 1.7×10^6 spores/ml in a 2% strength aqueous biomalt solution. The test plants were then placed in a dark climatized chamber at 22-24° C. and high atmospheric humidity. After 5 days, the extent of the fungal infection on the leaves could be determined visually in %.
# Pyrenophora teres = assay: Activity against net blotch of barley caused by Pyrenophora teres, 1 day protective application; type: in vivo, Pyrenophora [syn. Drechslera] teres; details: 250 ppm; barley "Hanna"; after 6 days; untreated 90% infected
# Procedure: The active compounds were prepared separately as a stock solution with 25 mg of active compound which was made up to 10 ml with a mixture of acetone and/or DMSO and the emulsifier Uniperol® EL (wetting agent having emulsifying and dispersing action based on ethoxylated alkylphenols) in a volume ratio solvent/emulsifier of 99 to 1. The solution was then made up to 100 ml with water. This stock solution was diluted to the active compound concentration stated below using the solvent/emulsifier/water mixture described. Activity Against Net Blotch of Barley Caused by Pyrenophora teres, 1 Day Protective Application Leaves of potted barley seedlings of the cultivar “Hanna” were sprayed to runoff point with an aqueous suspension having the concentration of active compounds stated below. 24 hours after the spray coating had dried on, the test plants were inoculated with an aqueous spore suspension of Pyrenophora [syn. Drechslera] teres, the net blotch pathogen. The test plants were then placed in a greenhouse at temperatures between 20 and 24° C. and 95 to 100% relative atmospheric humidity. After 6 days, the extent of the development of the disease was determined visually in % infection of the entire leaf area.
melting point [°C],SMILES,infection of treated leaf areas (Alternaria solani),infection of treated leaf areas (Botrytis cinerea),infection of treated leaf areas (Pyrenophora teres)
106 to 107,"CC(C)Oc1nc(-n2cccn2)nc(Cl)c1-c1c(F)cc(F)cc1F [1), 4-Chloro-6-isopropoxy-2-(pyrazol-1-yl)-5-(2,4,6-trifluorophenyl)pyrimidine]",only little infection,only little infection,only little infection
–,"CON=C(N)c1nc(Cl)c(-c2c(F)cc(F)cc2F)c(OC(C)C)n1 [3), O-Methyl (4-chloro-6-isopropoxy-5-(2,4,6-trifluorophenyl)pyrimidin-2-yl)carbamidoxime]",only little infection,only little infection,only little infection
–,CC(C)(C)Oc1nc(-c2ccccn2)nc(Cl)c1-c1c(F)cccc1Cl [4)],only little infection,only little infection,only little infection
32,"CC(C)Oc1nc(C#N)nc(Cl)c1-c1c(F)cc(F)cc1F [5), 4-Chloro-2-cyano-6-isopropoxy-5-(2,4,6-trifluorophenyl)pyrimidine]",–,–,–
